Laboratory results as given in patent US20160031868A1, “BENZIMIDAZOLONE DERIVATIVES AS BROMODOMAIN INHIBITORS” (GILEAD SCIENCES, INC., priority 2013, published 2016).
Like-named read-outs stand apart in the source and are kept apart here.

Legend:
BRD4-2 = biological target: T1, BRD4-2 (Homo sapiens, UniProt O60885); experiment: BRD4-2 Ligand KI assay (TR-FRET displacement of Cy5 labeled probe); assay type: binding
T1 construct: made in house; host or cells: Escherichia coli
Description: (§1) BRD4-I and BRD4-2 were expressed and purified from Escherichia coli as N-terminal His6-tagged proteins. A Eu-cryptate labeled anti-His antibody (Perkin Elmer) was used to specifically bind BRD4. […] Assays were performed in 50 mM Hepes (pH 7.5), 150 mM NaCl, 0.1 mg/ml BSA, 0.01% (v/v) Brij, 0.5% (v/v) DMSO and 10 nM labeled ligand at the following concentrations for each BRD4 isoform: 2 nM BRD4-1 and 0.5 nM BRD4-2. After an assay reaction time of 60 minutes at 25° C., binding was measured with 2 nM Eu-cryptate labeled anti-His antibody. TR-FRET signal was detected on an Envision plate reader (Ex: 320 nm; Em: 615/665 nm; 100 μs delay and 200 μs read window). Data were normalized based on a positive (2 μM I-BET) and negative (DMSO) controls and IC50 values were calculated from the fit of the dose-response curves to a four-parameter equation. All IC50 values represent geometric mean values of a minimum of four determinations. The IC50 values were converted to Ki values (dissociation constant for BRD4-inhibitor complex) using the Cheng and Prusoff equation for a competitive inhibitor mode of action.

[1] = MT-4 proliferation assay in 384-well format (Cell Titer Glo); assay type: cell-based, human; settings: human, MT-4 cells, Table 2, 50% decrease in luminescence signal, read-out: CC50 MT4 384
Description: Compounds were tested in a standardized high-throughput 384-well assay format. Each compound was serially diluted 3-fold in 100% DMSO in polypropylene 384-well plates using a Biomek FX Workstation, and 0.4 μL compound added to an assay plate containing 40 μL RPMI media. Compounds were arranged in a horizontal pattern, with 10 concentrations per compound, and 8 compounds added per plate. Due to low DMSO tolerability, the final DMSO concentration never exceeded 0.5% (v/v). Each assay plate contained 10 μM Puromycin and 0.5% DMSO in RPMI-1640 as positive and negative controls respectively. MT-4 cells (HTLV-1 transformed, human T lymphoblastoid cells, NIH Aids Reagent program) were added in volumes of 35 μL per well and 2,000 cells per well using a Biotek uFlow Workstation (Biotek, Winooski, Vt.), and the plates subsequently incubated for 5 days at 37° C. in an incubator set at 5% CO2 and 90% humidity.
After 5 days, 22 μL Cell Titer Glo (Promega) was added to the assay plates with a Biotek uFlow Workstation. Plates were subsequently placed on a Perkin Elmer Envision Plate Reader for 5 minutes before the luminescence signal was read. CC50 values were calculated from the compound concentration that caused a 50% decrease in luminescence signal, a measure of toxicity, and calculated by non-linear regression using Pipeline Pilot software (Accelrys, San Diego, Calif.).

[2] = tested on: c-Myc produced in MM1S cells; experiment: c-Myc down regulation assay (MSD ELISA) in MM1S cells; assay type: cell-based; settings: Homo sapiens, MM1.S, 24 hrs incubation, geometric mean, read-out: cMYC EC50
Description: An enzyme linked immunosorbent assay using the Meso Scale Diagnostic (MSD) technology was used to detect levels of c-Myc produced in MM1S cells (ATCC). MM1S cells were cultured in RPMI-1640 media (Corning), supplemented with 10% FBS (Hyclone), 1% penicillin-streptomycin (Cellgro), 2-mercaptoethanol (Gibco) and seeded onto 384-tissue culture treated filter binding plates (Millipore) at a density of 40K cells/well containing titrations of small molecule inhibitors or DMSO (0.4%) in a volume of 100 μl of media. After an incubation time of 24 hrs, cells were lysed (1× lysis buffer (Thermo) supplemented with protease and phosphatase inhibitor cocktail (Thermo)) and the plates centrifuged (1000 rpm, 1 min) to capture c-Myc on MSD plates coated with a monoclonal c-Myc antibody (Origene). Assay wells were washed (3× Invitrogen wash buffer) and probed with a polyclonal c-Myc antibody (Abcam) and MSD detection antibody solution in order to detect levels of c-Myc on the MSD platform. c-Myc capture was reported in pg/ml based on a standard curve using recombinant c-Myc protein (Prosci). EC50 values were calculated from the fit of the dose-response curves to a four-parameter equation. All EC50 values represent geometric mean values of a minimum of four determinations. These assays generally produced results within 3-fold of the reported mean.

BRD4-1 = biological target: T2, BRD4-1 (Homo sapiens, UniProt O60885); experiment: BRD4-1 Ligand KI assay (TR-FRET displacement of Cy5 labeled probe); assay type: binding
T2 construct: made in house; host or cells: Escherichia coli
Description: Binding of the two tandem bromodomains, BRD4-I and BRD4-2, to a Cy5 labeled probe/ligand (Compound 201-A) were measured using a homogeneous time resolved fluorescence resonance energy transfer (TR-FRET) assay.
as §1, with “The labeled ligand specifically binds BRD4-1 and BRD4-2 and can be displaced by a small molecule inhibitor that shares a similar or overlapping binding site. BRD4-I” for “BRD4-I”, “action. These assays generally produced results within 3-fold of the reported mean.” for “action.”

[3] = 10 nM labeled ligand, 0.5 nM BRD4-2, Ki from IC50 by Cheng and Prusoff, read-out: BRD4-2 Ligand K2
[4] = 10 nM labeled ligand, 2 nM BRD4-1, Ki from IC50 by Cheng and Prusoff, read-out: BRD4-1 Ligand K1

Row | Compound | Ki (BRD4-2; [3]) | EC50 [2] | Ki (BRD4-1; [4]) | CC50 at 5 days [1] | Ki (BRD4-2) | Ki (BRD4-1)
1 | Cc1noc(C)c1-c1cc(C(O)(c2cnccn2)c2c(F)cc(F)cc2F)c2[nH]c(=O)[nH]c2c1 (centres unmarked) [Example 56, 6-(3,5-dimethylisoxazol-4-yl)-4-(hydroxy(pyrazin-2-yl)(2,4,6-trifluorophenyl)methyl)-1H-benzo[d]imidazol-2(3H)-one] | 3.6 nM | 40.9 nM | 6 nM | 24.8 nM | – | –
2 | Cc1noc(C)c1-c1cc(C(O)(c2ccc(F)cn2)c2ccc(F)cc2F)c2[nH]c(=O)[nH]c2c1 (centres unmarked) [Example 39, 4-((2,4-difluorophenyl)(5-fluoropyridin-2-yl)(hydroxy)methyl)-6-(3,5-dimethylisoxazol-4-yl)-1H-benzo[d]imidazol-2(3H)-one] | 5.9 nM | 128 nM | 11.8 nM | 42.1 nM | – | –
3 | Cc1noc(C)c1-c1cc(C(O)(c2ccc(Cl)cn2)c2ccc(Cl)cn2)c2[nH]c(=O)[nH]c2c1 [Example 55, 4-(bis(5-chloropyridin-2-yl)(hydroxy)methyl)-6-(3,5-dimethylisoxazol-4-yl)-1H-benzo[d]imidazol-2(3H)-one] | 18.2 nM | 141 nM | 14.5 nM | 41 nM | – | –
4 | Cc1noc(C)c1-c1cc(C(O)(c2ccc(F)cn2)c2c(F)cc(F)cc2F)c2[nH]c(=O)[nH]c2c1 (centres unmarked) [Example 52, 6-(3,5-dimethylisoxazol-4-yl)-4-((5-fluoropyridin-2-yl)(hydroxy)(2,4,6-trifluorophenyl)methyl)-1H-benzo[d]imidazol-2(3H)-one] | 6.4 nM | 135 nM | 8.9 nM | 36.1 nM | – | –
5 | Cc1noc(C)c1-c1cc(C(O)(c2ccccn2)c2ccc(Cl)cn2)c2[nH]c(=O)[nH]c2c1 (centres unmarked) [Example 54, 4-((5-chloropyridin-2-yl)(hydroxy)(pyridin-2-yl)methyl)-6-(3,5-dimethylisoxazol-4-yl)-1H-benzo[d]imidazol-2(3H)-one] | – | 111 nM | – | 27.1 nM | 14.1 nM | 22.7 nM
6 | Cc1noc(C)c1-c1cc(C(O)(c2ccccn2)c2ccccn2)c2[nH]c(=O)[nH]c2c1 [Example 133, 6-(3,5-dimethylisoxazol-4-yl)-4-(hydroxydi(pyridin-2-yl)methyl)-1H-benzo[d]imidazol-2(3H)-one] | – | 44.3 nM | – | 25.5 nM | 15.8 nM | 40.3 nM
7 | Cc1noc(C)c1-c1cc(C(O)(c2ccccn2)c2ccc3ccc(F)cc3n2)c2[nH]c(=O)[nH]c2c1 (centres unmarked) [Example 36, 6-(3,5-dimethylisoxazol-4-yl)-4-((7-fluoroquinolin-2-yl)(hydroxy)(pyridin-2-yl)methyl)-1H-benzo[d]imidazol-2(3H)-one] | 5.3 nM | 176 nM | 14.1 nM | 29.1 nM | – | –
8 | Cc1noc(C)c1-c1cc(C(O)(c2cnccn2)c2c(F)cccc2F)c2[nH]c(=O)[nH]c2c1 (centres unmarked) [Example 49, 4-((2,6-difluorophenyl)(hydroxy)(pyrazin-2-yl)methyl)-6-(3,5-dimethylisoxazol-4-yl)-1H-benzo[d]imidazol-2(3H)-one] | – | – | 8.1 nM | 9.7 nM | – | –

The remaining molecules from weak to strong by Ki (BRD4-2; [3]), led by results:

Row | Ki (BRD4-2; [3]) | EC50 [2] | Ki (BRD4-1; [4]) | Compound | CC50 at 5 days [1] | Ki (BRD4-2) | Ki (BRD4-1)
9 | 33.5 nM | 128 nM | 62 nM | Cc1noc(C)c1-c1cc(C(O)(c2ccccn2)c2ccccn2)c2[nH]c(=O)[nH]c2c1F [Example 169] | 41.4 nM | – | –
10 | 24 nM | 154 nM | 34.2 nM | Cc1noc(C)c1-c1cc(-c2cccnc2C2CC2)c2[nH]c(=O)[nH]c2c1 [Example 73, 4-(2-cyclopropylpyridin-3-yl)-6-(3,5-dimethylisoxazol-4-yl)-1H-benzo[d]imidazol-2(3H)-one] | 61 nM | – | –
11 | 8 nM | 118 nM | 29.3 nM | Cc1noc(C)c1-c1cc(C(O)(CC(C)(C)C)c2ccccn2)c2[nH]c(=O)[nH]c2c1 (centres unmarked) [Example 143, 6-(3,5-dimethylisoxazol-4-yl)-4-(1-hydroxy-3,3-dimethyl-1-(pyridin-2-yl)butyl)-1H-benzo[d]imidazol-2(3H)-one] | 20.4 nM | – | –
12 | 5.9 nM | – | 8.7 nM | Cc1noc(C)c1-c1cc(C(O)(c2cccnn2)c2c(F)cccc2F)c2[nH]c(=O)[nH]c2c1 (centres unmarked) [Example 50, 4-((2,6-difluorophenyl)(hydroxy)(pyridazin-3-yl)methyl)-6-(3,5-dimethylisoxazol-4-yl)-1H-benzo[d]imidazol-2(3H)-one] | 16 nM | – | –
13 | 5.3 nM | 176 nM | 14.1 nM | Cc1noc(C)c1-c1cc(C(O)(c2ccccc2)c2ccc3ccc(F)cc3n2)c2[nH]c(=O)[nH]c2c1 (centres unmarked) [Example 33, 6-(3,5-dimethylisoxazol-4-yl)-4-((7-fluoroquinolin-2-yl)(hydroxy)(phenyl)methyl)-1H-benzo[d]imidazol-2(3H)-one] | 29.1 nM | – | –
14 | 4.6 nM | 73.8 nM | 17.3 nM | Cc1noc(C)c1-c1cc(C(O)(c2ccccc2)c2ccccn2)c2[nH]c(=O)[nH]c2c1 (centres unmarked) [Example 149, 6-(3,5-dimethylisoxazol-4-yl)-4-(hydroxy(phenyl)(pyridin-2-yl)methyl)-H benzo[d]imidazol-2(3H)-one] | 17.5 nM | – | –
15 | 4.4 nM | 84.7 nM | 7.8 nM | Cc1noc(C)c1-c1cc(C(O)(c2ccc(F)cn2)c2c(F)cccc2F)c2[nH]c(=O)[nH]c2c1 (centres unmarked) [Example 38, 4-((2,6-difluorophenyl)(5-fluoropyridin-2-yl)(hydroxy)methyl)-6-(3,5-dimethylisoxazol-4-yl)-1H-benzo[d]imidazol-2(3H)-one] | 29.7 nM | – | –
16 | 2.7 nM | – | 7.7 nM | Cc1noc(C)c1-c1cc(C(O)(c2ccccn2)C2CCCCC2)c2[nH]c(=O)[nH]c2c1 (centres unmarked) [Example 144, 4-(cyclohexyl(hydroxy)(pyridin-2-yl)methyl)-6-(3,5-dimethylisoxazol-4-yl)-1H-benzo[d]imidazol-2(3H)-one] | – | – | –
